The record followed here is US11401271B2, “Fused heterocyclic compound, pyrazole-ring-containing fused heterocyclic compound, agricultural composition containing thereof, and method of using the composition” (SOUTH CHINA AGRICULTURAL UNIVERSITY, priority 2017, dated 2022).

The structures appear in SMILES notation. Where two headings read alike, the source gives them in different places.

The term mortality denotes the percentage killed.

Experiment in all cases: whole plant or invertebrate
Holding throughout (format): in vivo

Data set [1] has as its system Spodoptera exigua. The note with it: for mortality at 500 ppm: Spodoptera exigua, 24 h, read-out: Spodoptera exigua Mortality (%) 500 ppm; for Spodoptera exigua Mortality (%) / Spodoptera exigua Mortality (%) 500 ppm: 500 ppm, 2nd-instar larvae, leaf immersion feeding; for Spodoptera exigua Mortality (%) 500 ppm: 24 hours. Summed up:
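Leaf immersion feeding: second-instar larvae (about 35 per vessel, triplicate) kept at 28° C on discs treated with 500 ppm test solution in 0.05% Tween-80. Mortality at 24 h, calculated relative to surviving larvae in the solvent control.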

The subject of data set [2] is Solenopsis invicta. The note with it: water test tube poison-feeding; for mortality at 100 ppm: Solenopsis invicta; for Solenopsis invicta Mortality (%) 24 h / Solenopsis invicta Mortality (%) 72 h / Solenopsis invicta Mortality (%) 100 ppm 24 h / Solenopsis invicta Mortality (%) 100 ppm 72 h: 100 ppm. A digest of the protocol:
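Mortality (%) of Solenopsis invicta, computed against live counts in control tubes, was recorded 24 h and 72 h after treatment at 25 °C. Compound was offered by oral feeding in test tubes at 100 ppm, diluted from a 10 g/L DMSO stock into water with 5% honey and 0.05% Tween-80.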

For data set [3], the system named is Plutella xylostella. The note with it: for mortality at 500 ppm: Plutella xylostella, read-out: Plutella xylostella Mortality (%) 500 ppm; for Plutella xylostella Mortality (%) / Plutella xylostella Mortality (%) 500 ppm: 500 ppm, 2nd-instar larvae, leaf immersion feeding. A digest of the protocol: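 Leaf immersion feeding test: 2nd-instar larvae (about 35 per vessel, 3 replicates) kept at 28° C. on 1.0 cm cabbage discs soaked 5 s in a 500 ppm solution with 0.05% Tween-80. Mortality after 24 h of exposure, calculated relative to live larvae in the Tween-80 control.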

Data set [4] relates to Aphis craccivora. The settings on record: for mortality at 500 ppm: Aphis craccivora, 24 h, read-out: Aphis craccivora Mortality (%) 500 ppm; for Aphis craccivora Mortality (%) / Aphis craccivora Mortality (%) 500 ppm: 500 ppm, wingless adults; for Aphis craccivora Mortality (%): immersion 5 seconds, counted after 24 hours; for Aphis craccivora Mortality (%) 500 ppm: impregnation method, 24 hours. A digest of the protocol: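 Mortality scored 24 h after treatment as the reduction in live aphids versus a 0.05% Tween-80 control; three replicates, 23° C. Treatment was a 5 s immersion of wingless adults on bean sprouts in 500 ppm test solution containing 0.05% Tween-80, followed by air-drying.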

Setting [5] is: 24 h, read-out: Solenopsis invicta Mortality (%) 100 ppm 24 h, 100 ppm, 24 h.
Setting [6] is: 72 h, read-out: Solenopsis invicta Mortality (%) 100 ppm 72 h, 100 ppm, 72 h.

With `C=CC1(CC#N)Nc2c([S+](C)[O-])c(C(C)=O)nn2-c2c(Cl)cc(C(F)(F)F)cc21` (stereo not shown) [Compound C23], the mortality at 500 ppm was found to be 88% in data set [1], 86% in data set [3] and 95% in data set [4]. Besides, the mortality at 100 ppm in data set [2] (setting [5]) was 18%; in data set [2] (setting [6]), 80%.
Take `COC(=O)CC1(C(=O)OC)Nc2c([S+]([O-])C(F)(F)F)c(C#N)nn2-c2c(C(F)(F)F)ccc(Cl)c21` (stereo not shown) [e-1]: in data set [1], the “Spodoptera exigua Mortality (%)” value was 100%. Moreover, the “Solenopsis invicta Mortality (%) 24 h” value in data set [2] (24 h) came out at 33%. Moreover, the “Solenopsis invicta Mortality (%) 72 h” value in data set [2] (72 h) worked out at 100%. Also, in data set [3], the “Plutella xylostella Mortality (%)” value is given as 100%. The “Aphis craccivora Mortality (%)” value in data set [4] came to 100%.
On to `CS(=O)(=O)Nc1cc2n(n1)-c1cnccc1C(F)(CC(F)(F)F)N2` (stereo not shown) [Compound A42], for which the mortality at 500 ppm in data set [1], in data set [3] and in data set [4] was 100% each time. The mortality at 100 ppm in data set [2] (setting [5]) came out at 44%; in data set [2] (setting [6]) it was 100%.
Turning to `CSc1nn2c(c1C#N)N(S(C)(=O)=O)C(F)(C(F)(F)F)c1ccccc1-2` (stereo not shown) [Compound A33], the mortality at 500 ppm in data set [1], in data set [3] and in data set [4] was 100% throughout. Also, the mortality at 100 ppm came to 24% in data set [2] (setting [5]) and 100% in data set [2] (setting [6]).
For `CC(=O)c1nn2c(c1[S+](C)[O-])NC(CC(N)=O)(C(N)=O)c1cc(C(F)(F)F)cc(Cl)c1-2` (stereo not shown) [Compound C49], the mortality at 500 ppm in data set [1] stood at 89%; in data set [3] it was 87%; in data set [4], 90%. Also, the mortality at 100 ppm turned out to be 20% in data set [2] (setting [5]) and 81% in data set [2] (setting [6]).
On to `CCNc1cc2n(n1)-c1cnccc1C(F)(CC(F)(F)F)N2` (stereo not shown) [Compound A37], for which the mortality at 500 ppm in data set [1], in data set [3] and in data set [4] was 100% each time. The mortality at 100 ppm in data set [2] (setting [5]) stood at 20%; in data set [2] (setting [6]) it was 100%.
For the compound `COC(=O)C1(CC#N)Nc2c([S+]([O-])C(F)(F)F)c(C#N)nn2-c2ncc(C(F)(F)F)cc21` (stereo not shown) [a-2], in data set [1], the “Spodoptera exigua Mortality (%) 500 ppm” value is on record as 97%. In data set [2] (24 h), the “Solenopsis invicta Mortality (%) 100 ppm 24 h” value amounted to 19%. For the same compound, the “Solenopsis invicta Mortality (%) 100 ppm 72 h” value in data set [2] (72 h) came out at 98%. Also, in data set [3], the “Plutella xylostella Mortality (%) 500 ppm” value was found to be 97%. In data set [4], the “Aphis craccivora Mortality (%) 500 ppm” value was determined as 100%.
`N#CCC1Nc2c([S+]([O-])C(F)(F)F)c(C#N)nn2-c2cncc(Cl)c21` (stereo not shown) [b-73]: in data set [1], the “Spodoptera exigua Mortality (%)” value was 85%. Also, in data set [2] (24 h), the “Solenopsis invicta Mortality (%) 24 h” value is listed as 20%. For the same compound, in data set [2] (72 h), the “Solenopsis invicta Mortality (%) 72 h” value turned out to be 90%. Also, the “Plutella xylostella Mortality (%)” value in data set [3] was found to be 89%. Besides, the “Aphis craccivora Mortality (%)” value in data set [4] is 100%.
With `CC[S+]([O-])c1c(C#N)nn2c1NC(CC(=O)OC)(C(=O)OC)c1cc(C(F)(F)F)cc(Cl)c1-2` (stereo not drawn) [d-14], the “Spodoptera exigua Mortality (%)” value in data set [1] is listed as 89%. Further, the “Solenopsis invicta Mortality (%) 24 h” value in data set [2] (24 h) amounted to 24%. The “Solenopsis invicta Mortality (%) 72 h” value in data set [2] (72 h) worked out at 100%. Moreover, the “Plutella xylostella Mortality (%)” value in data set [3] came out at 90%. The “Aphis craccivora Mortality (%)” value in data set [4] was 100%.
`COC(=O)CC1(C#N)Nc2c([S+]([O-])C(F)(F)F)c(C#N)nn2-c2ncc(C(F)(F)F)cc21` (stereo not shown) [a-56]: the “Spodoptera exigua Mortality (%) 500 ppm” value in data set [1] is reported as 90%. Further, the “Solenopsis invicta Mortality (%) 100 ppm 24 h” value in data set [2] (24 h) is recorded as 16%. Further, the “Solenopsis invicta Mortality (%) 100 ppm 72 h” value in data set [2] (72 h) was determined as 93%. For the same compound, the “Plutella xylostella Mortality (%) 500 ppm” value in data set [3] came out at 100%. Further, in data set [4], the “Aphis craccivora Mortality (%) 500 ppm” value was determined as 100%.
Take `O=C(C1Nc2c([S+]([O-])C(F)(F)F)c(C(F)(F)F)nn2-c2cncc(Cl)c21)C(F)(F)F` (stereo not shown) [b-94]: the “Spodoptera exigua Mortality (%)” value in data set [1] is recorded as 90%. The “Solenopsis invicta Mortality (%) 24 h” value in data set [2] (24 h) came to 20%. Further, the “Solenopsis invicta Mortality (%) 72 h” value in data set [2] (72 h) is reported as 100%. In addition, in data set [3], the “Plutella xylostella Mortality (%)” value was determined as 100%. Besides, the “Aphis craccivora Mortality (%)” value in data set [4] was found to be 100%.
`N#Cc1nn2c(c1[S+]([O-])C(F)(F)F)NC(CBr)(C(=O)C(F)(F)F)c1cc(C(F)(F)F)cnc1-2` (stereo not shown) [a-29]: the “Spodoptera exigua Mortality (%) 500 ppm” value in data set [1] came to 91%. Also, in data set [2] (24 h), the “Solenopsis invicta Mortality (%) 100 ppm 24 h” value is recorded as 14%. Besides, the “Solenopsis invicta Mortality (%) 100 ppm 72 h” value in data set [2] (72 h) is reported as 96%. In addition, in data set [3], the “Plutella xylostella Mortality (%) 500 ppm” value worked out at 100%. In data set [4], the “Aphis craccivora Mortality (%) 500 ppm” value stood at 100%.
On to `CSc1nn2c(c1C(N)=O)NC(F)(C(F)(F)F)c1ccccc1-2` (stereo not shown) [Compound A28], for which the mortality at 500 ppm in data set [1] was determined as 90%; in data set [3], 100%; in data set [4], 100%. Moreover, the results for the mortality at 100 ppm in data set [2] (setting [5]) and in data set [2] (setting [6]) were 29% and 97%, respectively.
On to `N#CCC1(C(F)(F)F)Nc2c([S+]([O-])C(F)(F)F)c(C#N)nn2-c2ncc(C(F)(F)F)cc21` (stereo not shown) [a-59], for which the “Spodoptera exigua Mortality (%) 500 ppm” value in data set [1] amounted to 91%. Besides, the “Solenopsis invicta Mortality (%) 100 ppm 24 h” value in data set [2] (24 h) was found to be 28%. The “Solenopsis invicta Mortality (%) 100 ppm 72 h” value in data set [2] (72 h) is 97%. For the same compound, the “Plutella xylostella Mortality (%) 500 ppm” value in data set [3] is given as 96%. Moreover, in data set [4], the “Aphis craccivora Mortality (%) 500 ppm” value amounted to 100%.
Regarding `N#Cc1nn2c(c1[S+]([O-])C(F)(F)F)NC(CC(F)(F)F)(C(F)(F)F)c1cc(C(F)(F)F)cc(Cl)c1-2` (stereo not drawn) [d-69], the “Spodoptera exigua Mortality (%)” value in data set [1] worked out at 86%. The “Solenopsis invicta Mortality (%) 24 h” value in data set [2] (24 h) was 44%. Besides, the “Solenopsis invicta Mortality (%) 72 h” value in data set [2] (72 h) was 100%. Further, the “Plutella xylostella Mortality (%)” value in data set [3] is listed as 90%. Besides, the “Aphis craccivora Mortality (%)” value in data set [4] was found to be 100%.
As to `COC(=O)C1Nc2c([S+]([O-])C(F)(F)F)c(C(F)(F)F)nn2-c2ncc(C(F)(F)F)cc21` (stereo not shown) [a-87], in data set [1], the “Spodoptera exigua Mortality (%) 500 ppm” value is on record as 100%. Further, in data set [2] (24 h), the “Solenopsis invicta Mortality (%) 100 ppm 24 h” value is listed as 20%. In data set [2] (72 h), the “Solenopsis invicta Mortality (%) 100 ppm 72 h” value came to 97%. The “Plutella xylostella Mortality (%) 500 ppm” value in data set [3] is 96%. Moreover, in data set [4], the “Aphis craccivora Mortality (%) 500 ppm” value is on record as 100%.
`CN1c2c(Br)c(C#N)nn2-c2ccccc2C1(C)C` [Compound A3]: the results for the mortality at 500 ppm in data set [1], in data set [3] and in data set [4] were 100%, 90% and 100%, respectively. The results for the mortality at 100 ppm in data set [2] (setting [5]) and in data set [2] (setting [6]) were 25% and 100%, respectively.
In the case of `CN1CCN(C(=O)C2(CC#N)Nc3c([S+]([O-])C(F)(F)F)c(C#N)nn3-c3c(Cl)cc(C(F)(F)F)cc32)CC1` (stereo not shown) [Compound C34], the mortality at 500 ppm in data set [1], in data set [3] and in data set [4] was 100% each time. The mortality at 100 ppm is 40% in data set [2] (setting [5]) and 100% in data set [2] (setting [6]).
In the case of `CCOC(=O)CC1(C(=O)OC)Nc2c([S+]([O-])C(F)(F)F)c(C#N)nn2-c2c(C(F)(F)F)ccc(Cl)c21` (stereo not shown) [e-2], the “Spodoptera exigua Mortality (%)” value in data set [1] stood at 100%. Besides, the “Solenopsis invicta Mortality (%) 24 h” value in data set [2] (24 h) was determined as 25%. For the same compound, the “Solenopsis invicta Mortality (%) 72 h” value in data set [2] (72 h) stood at 100%. The “Plutella xylostella Mortality (%)” value in data set [3] is 100%. Besides, in data set [4], the “Aphis craccivora Mortality (%)” value is on record as 100%.
With `N#Cc1nn2c(c1[S+]([O-])C(F)(F)F)NC(C#N)c1cc(C(F)(F)F)cnc1-2` (stereo not shown) [a-72], the “Spodoptera exigua Mortality (%) 500 ppm” value in data set [1] was found to be 89%. Further, in data set [2] (24 h), the “Solenopsis invicta Mortality (%) 100 ppm 24 h” value was 20%. In data set [2] (72 h), the “Solenopsis invicta Mortality (%) 100 ppm 72 h” value turned out to be 91%. For the same compound, in data set [3], the “Plutella xylostella Mortality (%) 500 ppm” value was 96%. In data set [4], the “Aphis craccivora Mortality (%) 500 ppm” value was 100%.
